One test addresses JH2 domain of human Tyk2 (Homo sapiens (Human), UniProt P29597). Description: JH2 Biochemical Assay (TR-FRET probe displacement). Format: binding. In general terms: In TR-FRET formats the signal depends on donor and acceptor labels being close together.
In another test the target is Tyk2 (Homo sapiens (Human), UniProt P29597). Description: pSTAT4 Cell Assay (MSD, NK92 cells). Type of test: cell-based.
[1] abbreviates: JH2 domain of human Tyk2, TR-FRET probe displacement.
[2] abbreviates: TR-FRET probe displacement, JH2 domain of human Tyk2.
[3] abbreviates: TR-FRET probe displacement, JH2 domain.

SMILES strings stand for the structures. Structures can show the parent of a compound that is named as a salt. Where two headings read alike, the source gives them in different places.

JH2 domain of human Tyk2, sequence (P29597 575-876): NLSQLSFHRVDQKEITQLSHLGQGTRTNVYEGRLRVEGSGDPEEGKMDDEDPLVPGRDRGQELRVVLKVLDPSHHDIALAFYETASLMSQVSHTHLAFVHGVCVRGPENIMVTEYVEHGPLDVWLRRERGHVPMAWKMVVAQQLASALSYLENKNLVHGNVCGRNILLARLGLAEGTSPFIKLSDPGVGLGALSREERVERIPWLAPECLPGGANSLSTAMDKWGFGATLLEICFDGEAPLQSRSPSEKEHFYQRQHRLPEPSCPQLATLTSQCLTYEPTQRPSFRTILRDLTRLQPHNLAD
Tyk2, sequence (P29597 whole entry, the tested form may be a part): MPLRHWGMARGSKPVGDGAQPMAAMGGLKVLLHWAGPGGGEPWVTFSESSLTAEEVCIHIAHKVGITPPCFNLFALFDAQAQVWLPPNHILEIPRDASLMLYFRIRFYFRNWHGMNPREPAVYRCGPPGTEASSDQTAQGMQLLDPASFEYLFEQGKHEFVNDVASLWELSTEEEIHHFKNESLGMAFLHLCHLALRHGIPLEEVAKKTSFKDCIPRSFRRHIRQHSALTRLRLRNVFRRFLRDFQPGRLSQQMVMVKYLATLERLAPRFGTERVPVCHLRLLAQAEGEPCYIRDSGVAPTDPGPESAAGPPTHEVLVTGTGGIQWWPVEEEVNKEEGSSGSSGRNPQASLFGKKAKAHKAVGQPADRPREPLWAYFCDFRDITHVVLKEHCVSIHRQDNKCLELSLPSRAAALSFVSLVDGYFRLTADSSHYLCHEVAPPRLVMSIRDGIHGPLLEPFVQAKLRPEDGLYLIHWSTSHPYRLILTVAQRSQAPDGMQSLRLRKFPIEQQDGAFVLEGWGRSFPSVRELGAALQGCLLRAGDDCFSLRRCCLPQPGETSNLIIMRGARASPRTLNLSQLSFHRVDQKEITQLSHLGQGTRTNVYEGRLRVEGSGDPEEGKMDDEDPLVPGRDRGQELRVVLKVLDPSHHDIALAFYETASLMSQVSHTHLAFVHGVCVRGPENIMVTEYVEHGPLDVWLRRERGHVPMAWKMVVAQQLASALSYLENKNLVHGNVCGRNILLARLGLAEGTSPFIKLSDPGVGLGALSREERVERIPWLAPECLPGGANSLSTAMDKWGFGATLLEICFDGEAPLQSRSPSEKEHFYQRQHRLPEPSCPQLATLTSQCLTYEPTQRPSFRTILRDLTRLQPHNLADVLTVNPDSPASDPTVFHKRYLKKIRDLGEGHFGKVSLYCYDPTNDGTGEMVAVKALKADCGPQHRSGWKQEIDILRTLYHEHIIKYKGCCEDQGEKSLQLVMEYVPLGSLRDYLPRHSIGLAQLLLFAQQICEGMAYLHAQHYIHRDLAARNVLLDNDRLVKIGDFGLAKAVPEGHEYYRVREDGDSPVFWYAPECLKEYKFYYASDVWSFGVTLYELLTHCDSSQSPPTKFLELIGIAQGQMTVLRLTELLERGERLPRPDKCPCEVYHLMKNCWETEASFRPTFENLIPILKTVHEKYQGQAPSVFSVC

Broadly, the IC50 is the concentration that gives 50% inhibition. Read a high IC50 as a need for much substance. On to `CC(=O)Nc1cc(Nc2ccnc(C(C)(F)F)n2)c(-c2nc3c(s2)COCC3)cn1` [Example 573, N-(4-((2-(1,1-difluoroethyl)pyrimidin-4-yl)amino)-5-(6,7-dihydrO4H-pyrano[4,3-d]thiazol-2-yl)pyridin-2-yl)acetamide], for which the IC50 on JH2 domain of human Tyk2 (setting [1]) and against Tyk2 (MSD) was ≤ 10 nM in each case.
As for `COc1cncc(Oc2cnc(NC(C)=O)cc2Nc2cc(C)nc(C(C)(F)F)n2)n1` [Example 357, N-(4-((2-(1,1-difluoroethyl)-6-methylpyrimidin-4-yl)amino)-5-((6-methoxypyrazin-2-yl)oxy)pyridin-2-yl)acetamide], the IC50 on JH2 domain of human Tyk2 (setting [2]) is 10 to 100 nM; against Tyk2 (MSD) it was ≥ 1000 nM.
For the compound `CC(=O)Nc1cc(Nc2cc(C)nc(C(C)(F)F)n2)c(-c2ccc(C(F)F)cn2)cn1` [Example 827, N-(4′-((2-(1,1-difluoroethyl)-6-methylpyrimidin-4-yl)amino)-5-(difluoromethyl)-[2,3′-bipyridin]-6′-yl)acetamide], the 50% inhibitory concentration (IC50) on JH2 domain of human Tyk2 (setting [3]) and on Tyk2 was ≤ 10 nM throughout.
As to `CC(=O)Nc1cc(Nc2cccc(C(C)(F)F)n2)c(-c2cn(C)c(=O)cn2)cn1` [Example 159, N-(4-((6-(1,1-difluoroethyl)pyridin-2-yl)amino)-5-(4-methyl-5-oxo-4,5-dihydropyrazin-2-yl)pyridin-2-yl)acetamide], the IC50 on JH2 domain of human Tyk2 (setting [2]) is ≤ 10 nM; against Tyk2 (MSD), 10 to 100 nM.
In the same order, the values of `CC(=O)Nc1cc(Nc2cc(C)nc(C(C)(F)F)n2)c([C@H]2CCCO2)cn1` (single isomer, unassigned) [Example 278, (R)-N-(4-((2-(1,1-difluoroethyl)-6-methylpyrimidin-4-yl)amino)-5-(tetrahydrofuran-2-yl)pyridin-2-yl)acetamide or (S)—N-(4-((2-(1,1-difluoroethyl)-6-methylpyrimidin-4-yl)amino)-5-(tetrahydrofuran-2-yl)pyridin-2-yl)acetamide] are 10 to 100 nM and ≥ 1000 nM.
As for `CCc1cc(Nc2cc(NC(C)=O)ncc2-c2ccc(N(C)C)nn2)nc(C(C)(F)F)n1` [Example 862, N-(4-((2-(1,1-difluoroethyl)-6-ethylpyrimidin-4-yl)amino)-5-(6-(dimethylamino)pyridazin-3-yl)pyridin-2-yl)acetamide], the concentration for half-maximal inhibition (IC50) on JH2 domain of human Tyk2 (setting [3]) and on Tyk2 was ≤ 10 nM throughout.
For the compound `CC(=O)Nc1cc(Nc2cc(C)nc(C(C)(F)F)n2)c(-c2cccc(CN3CCOCC3)n2)cn1` [Example 650, N-(4′-((2-(1,1-difluoroethyl)-6-methylpyrimidin-4-yl)amino)-6-(morpholinomethyl)-[2,3′-bipyridin]-6′-yl)acetamide], the IC50 on JH2 domain of human Tyk2 (setting [1]) and against Tyk2 (MSD) was ≤ 10 nM throughout.
For the compound `CC(=O)Nc1cc(Nc2cc(C)nc(C(C)(F)F)n2)c(OCCN(C)C)cn1` [Example 25, N-(4-((2-(1,1-difluoroethyl)-6-methylpyrimidin-4-yl)amino)-5-(2-(dimethylamino)ethoxy)pyridin-2-yl)acetamide], the IC50 was ≤ 10 nM on JH2 domain of human Tyk2 (setting [2]) and 10 to 100 nM at Tyk2 (MSD).
For `CC(=O)Nc1cc(Nc2ccnc(C(C)(F)F)n2)c(OC(C)C)cn1` [Example 8, N-(4-((2-(1,1-difluoroethyl)pyrimidin-4-yl)amino)-5-isopropoxypyridin-2-yl)acetamide], the IC50 at JH2 domain of human Tyk2 (setting [2]) was ≤ 10 nM; against Tyk2 (MSD), 100 to 1000 nM.
Take `CC(=O)Nc1cc(Nc2cc(C)nc(C(C)(F)F)n2)c(OCC(F)C(C)C)cn1` (centres unmarked) [Example 429, N-(4-((2-(1,1-difluoroethyl)-6-methylpyrimidin-4-yl)amino)-5-(2-fluoro-3-methylbutoxy)pyridin-2-yl)acetamide]: the IC50 on JH2 domain of human Tyk2 (setting [1]) was ≤ 10 nM; against Tyk2 (MSD), 10 to 100 nM.
For `CC(=O)Nc1cc(Nc2cc(C)nc(C(C)(F)F)n2)c(-c2ncc(C)cn2)cn1` [Example 595, N-(4-((2-(1,1-difluoroethyl)-6-methylpyrimidin-4-yl)amino)-5-(5-methylpyrimidin-2-yl)pyridin-2-yl)acetamide], in that order: ≤ 10 nM and 10 to 100 nM.
Take `CC(=O)Nc1cc(Nc2cc(C)nc(C(C)(F)F)n2)c(OCc2ccc(F)cn2)cn1` [Example 125, N-(4-((2-(1,1-difluoroethyl)-6-methylpyrimidin-4-yl)amino)-5-((5-fluoropyridin-2-yl)methoxy)pyridin-2-yl)acetamide]: the IC50 on JH2 domain of human Tyk2 (setting [2]) is ≤ 10 nM; against Tyk2 (MSD) it was 10 to 100 nM.
As for `[2H]C([2H])([2H])C(=O)Nc1cc(Nc2cc(C)nc(C(C)(F)F)n2)c(-c2ccc(OC)nn2)cn1` [Example 213, N-(4-((2-(1,1-difluoroethyl)-6-methylpyrimidin-4-yl)amino)-5-(6-methoxypyridazin-3-yl)pyridin-2-yl)acetamide-2,2,2-d3], the 50% inhibitory concentration (IC50) on JH2 domain of human Tyk2 (setting [2]) and against Tyk2 (MSD) was ≤ 10 nM throughout.
For `CC(=O)Nc1cc(Nc2ccnc(C(C)(F)F)n2)c(-c2cnc(C(C)(F)F)cn2)cn1` [Example 695, N-(5-(5-(1,1-difluoroethyl)pyrazin-2-yl)-4-((2-(1,1-difluoroethyl)pyrimidin-4-yl)amino)pyridin-2-yl)acetamide], the IC50 on JH2 domain of human Tyk2 (setting [1]) was ≤ 10 nM; against Tyk2 (MSD), 100 to 1000 nM.
For `CCOc1cnc(NC(C)=O)cc1Nc1cc(-c2cnn(CC(=O)O)c2)nc(C(C)(F)F)n1` [Example 305, 2-(4-(6-((2-acetamido-5-ethoxypyridin-4-yl)amino)-2-(1,1-difluoroethyl)pyrimidin-4-yl)-1H-pyrazol-1-yl)acetic acid], the IC50 is ≤ 10 nM on JH2 domain of human Tyk2 (setting [2]) and ≥ 1000 nM against Tyk2 (MSD).
For the compound `COCCOc1cnc(NC(C)=O)cc1Nc1cc(C)nc(C(F)CF)n1` (centres unmarked) [Example 79, N-(4-((2-(1,2-difluoroethyl)-6-methylpyrimidin-4-yl)amino)-5-(2-methoxyethoxy)pyridin-2-yl)acetamide], the IC50 on JH2 domain of human Tyk2 (setting [2]) was ≤ 10 nM; against Tyk2 (MSD), 10 to 100 nM.
`COc1cnc(NC(C)=O)cc1Nc1cc(-c2cn[nH]c2F)nc(C(C)(F)F)n1` [Example 385, N-(4-((2-(1,1-difluoroethyl)-6-(5-fluoro-1H-pyrazol-4-yl)pyrimidin-4-yl)amino)-5-methoxypyridin-2-yl)acetamide]: the values for the IC50 at JH2 domain of human Tyk2 (setting [1]) and against Tyk2 (MSD) were 10 to 100 nM and 100 to 1000 nM, respectively.
For the compound `COc1cnc(NC(C)=O)cc1Nc1cc(OC2CCC2)nc(C(C)(F)F)n1` [Example 455, N-(4-((6-cyclobutoxy-2-(1,1-difluoroethyl)pyrimidin-4-yl)amino)-5-methoxypyridin-2-yl)acetamide trifluoroacetate], the IC50 at JH2 domain of human Tyk2 (setting [1]) and on Tyk2 (MSD) was ≤ 10 nM in each case.
Take `CC(=O)Nc1cc(Nc2ccnc(C(C)(F)F)n2)c(-c2ccc(CN3C[C@H]4C[C@@H](C3)O4)cn2)cn1` [Example 702, N-(5-(((1R,5S)-6-oxa-3-azabicyclo[3.1.1]heptan-3-yl)methyl)-4′-((2-(1,1-difluoroethyl)pyrimidin-4-yl)amino)-[2,3′-bipyridin]-6′-yl)acetamide]: the IC50 at JH2 domain of human Tyk2 (setting [1]) and at Tyk2 (MSD) was ≤ 10 nM each time.
For the compound `CCOc1cnc(NC(C)=O)cc1Nc1cc(OC2CC(F)(F)C2)nc(C(C)(F)F)n1` [Example 459, N-(4-((6-(3,3-difluorocyclobutoxy)-2-(1,1-difluoroethyl)pyrimidin-4-yl)amino)-5-ethoxypyridin-2-yl)acetamide], the IC50 was ≤ 10 nM on JH2 domain of human Tyk2 (setting [1]) and 10 to 100 nM against Tyk2 (MSD).
As for `CC(=O)Nc1cc(Nc2cc(C)nc(C(C)(F)F)n2)c(-c2ncn(C)n2)cn1` [Example 157, N-(4-((2-(1,1-difluoroethyl)-6-methylpyrimidin-4-yl)amino)-5-(1-methyl-1H-1,2,4-triazol-3-yl)pyridin-2-yl)acetamide], the IC50 was ≤ 10 nM at JH2 domain of human Tyk2 (setting [2]) and 100 to 1000 nM against Tyk2 (MSD).
With `COCCOc1ccnc(Nc2cc(NC(C)=O)ncc2-c2ccn(C)n2)n1` [Example 550, N-(4-((4-(2-methoxyethoxy)pyrimidin-2-yl)amino)-5-(1-methyl-1H-pyrazol-3-yl)pyridin-2-yl)acetamide], the IC50 on JH2 domain of human Tyk2 (setting [1]) is ≤ 10 nM; against Tyk2 (MSD), 100 to 1000 nM.
With `COc1ccc(-c2cnc(NC(C)=O)cc2Nc2cccc(C(C)(F)F)n2)nn1` [Example 526, N-(4-((6-(1,1-difluoroethyl)pyridin-2-yl)amino)-5-(6-methoxypyridazin-3-yl)pyridin-2-yl)acetamide], the values for the IC50 at JH2 domain of human Tyk2 (setting [1]) and on Tyk2 (MSD) were ≤ 10 nM and 10 to 100 nM, respectively.
Consider `COc1cncc(-c2cc(Nc3cc(NC(C)=O)ncc3OC)nc(C(C)(F)F)n2)c1` [Example 296, N-(4-((2-(1,1-difluoroethyl)-6-(5-methoxypyridin-3-yl)pyrimidin-4-yl)amino)-5-methoxypyridin-2-yl)acetamide], for which the results for the IC50 on JH2 domain of human Tyk2 (setting [2]) and against Tyk2 (MSD) were 10 to 100 nM and 100 to 1000 nM, respectively.
`CCc1cc(Nc2cc(NC(C)=O)ncc2O[C@H]2C[C@@H](F)C2)nc(C(C)(F)F)n1` [Example 413, N-(4-((2-(1,1-difluoroethyl)-6-ethylpyrimidin-4-yl)amino)-5-((1s,3s)-3-fluorocyclobutoxy)pyridin-2-yl)acetamide]: the IC50 on JH2 domain of human Tyk2 (setting [1]) and against Tyk2 (MSD) was ≤ 10 nM throughout.
As for `COc1ccc(-c2cnc(NC(C)=O)cc2Nc2cc(C)nc(C34COC(C3)C4)n2)nn1` [Example 749, N-(4-((2-(2-oxabicyclo[2.1.1]hexan-4-yl)-6-methylpyrimidin-4-yl)amino)-5-(6-methoxypyridazin-3-yl)pyridin-2-yl)acetamide], the IC50 is ≤ 10 nM on JH2 domain of human Tyk2 (setting [3]) and 10 to 100 nM on Tyk2.
For `[2H]C([2H])([2H])C([2H])([2H])Oc1cnc(NC(C)=O)cc1Nc1cc(-c2cnn(C(C)C)c2)nc(C(C)(F)F)n1` [Example 361, N-(4-((2-(1,1-difluoroethyl)-6-(1-isopropyl-1H-pyrazol-4-yl)pyrimidin-4-yl)amino)-5-(ethoxy-d5)pyridin-2-yl)acetamide], the half-inhibitory concentration (IC50) at JH2 domain of human Tyk2 (setting [2]) and against Tyk2 (MSD) was ≤ 10 nM throughout.
For `CC(=O)Nc1cc(Nc2cc(C)nc(C(C)(F)F)n2)c(-c2cccc(C3CCCCO3)n2)cn1` (centres unmarked) [Example 647, N-(4′-((2-(1,1-difluoroethyl)-6-methylpyrimidin-4-yl)amino)-6-(tetrahydro2H-pyran-2-yl)-[2,3′-bipyridin]-6′-yl)acetamide], the IC50 at JH2 domain of human Tyk2 (setting [1]) and at Tyk2 (MSD) was ≤ 10 nM in each case.
